Reference: PMC12380724, “The air pollutant phenanthrene disrupts calcium cycling and alters repolarization in female sheep ventricular cardiomyocytes” (Physiological Reports, 2025)

Target: T1, ERG channel (rapid delayed rectifier potassium channel, IKr) (Ovis aries, UniProt A0ACI6Q0V2)
T1 construct: gene KCNH2; native IKr in isolated left ventricular myocytes
T1 sequence (A0ACI6Q0V2 1-1163): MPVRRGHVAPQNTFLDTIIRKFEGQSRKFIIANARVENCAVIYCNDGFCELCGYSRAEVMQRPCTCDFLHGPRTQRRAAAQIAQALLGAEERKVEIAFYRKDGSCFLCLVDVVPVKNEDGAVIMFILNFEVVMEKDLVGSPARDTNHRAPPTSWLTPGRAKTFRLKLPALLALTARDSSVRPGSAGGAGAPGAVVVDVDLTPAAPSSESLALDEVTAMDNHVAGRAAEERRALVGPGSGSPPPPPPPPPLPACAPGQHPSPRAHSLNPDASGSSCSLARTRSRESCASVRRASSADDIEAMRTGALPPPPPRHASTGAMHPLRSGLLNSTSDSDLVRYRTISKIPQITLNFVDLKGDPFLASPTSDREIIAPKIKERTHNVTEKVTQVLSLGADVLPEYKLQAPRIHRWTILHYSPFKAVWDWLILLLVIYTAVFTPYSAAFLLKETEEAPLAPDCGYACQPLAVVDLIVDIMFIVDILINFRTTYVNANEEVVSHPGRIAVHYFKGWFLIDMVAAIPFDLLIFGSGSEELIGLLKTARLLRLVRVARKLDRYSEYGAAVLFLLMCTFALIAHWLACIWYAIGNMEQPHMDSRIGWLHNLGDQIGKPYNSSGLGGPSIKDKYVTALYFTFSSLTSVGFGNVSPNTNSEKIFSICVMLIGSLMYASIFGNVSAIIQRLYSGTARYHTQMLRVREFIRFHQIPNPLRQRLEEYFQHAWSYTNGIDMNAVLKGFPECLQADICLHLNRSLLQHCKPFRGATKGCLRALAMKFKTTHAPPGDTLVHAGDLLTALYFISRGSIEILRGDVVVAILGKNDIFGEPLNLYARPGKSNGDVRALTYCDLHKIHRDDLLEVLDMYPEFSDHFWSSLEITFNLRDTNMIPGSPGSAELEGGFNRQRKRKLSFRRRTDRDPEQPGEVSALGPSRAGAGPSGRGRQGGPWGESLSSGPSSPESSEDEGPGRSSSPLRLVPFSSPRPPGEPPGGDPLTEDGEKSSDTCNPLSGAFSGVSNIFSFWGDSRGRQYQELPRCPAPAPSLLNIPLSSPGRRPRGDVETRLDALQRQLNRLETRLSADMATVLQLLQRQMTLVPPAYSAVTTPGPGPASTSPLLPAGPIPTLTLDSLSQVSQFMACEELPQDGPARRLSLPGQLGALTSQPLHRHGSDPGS
Test: whole-cell patch-clamp of native IKr tail current
Assay type: cell-based

SMILES: c1ccc2c(c1)ccc1ccccc12 [Phe, phenanthrene]
- inhibition at 25 µM: 55.8%
